According to US5208223A, “Phosphocholine derivative inhibitors of phospholipase A2” (American Cyanamid Company, priority 1992, dated 1993):
Where “and” joins values, the source holds several entries; their conditions need not be identical. Identical values can stand only once. Counter-ions that a name gives are not always drawn. Like-named read-outs stand apart in the source and are kept apart here.

How the values were obtained:
Assay type in all cases: biochemical
porcine pancreatic PLA2 [1] = target: T1, porcine pancreatic PLA2 (Sus scrofa, UniProt P00592); assay: MHPLA2 assay: in vitro porcine pancreatic phospholipase A2, mixed micelle design, [s]=10 μm; settings: for inhibition at 25 µg/mL: dose 25 μ/ml
T1 construct: purchased Sigma
Method in brief: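 Compounds dried with 10 μM 1-stearyl-2-[3H]-arachidonyl-PC substrate in mixed micelles (0.1M tris-HCl pH 9.0, 10 mM CaCl2, 10 mM Na taurocholate). Reaction started by adding enzyme and run 15 min at 37°C, then stopped with TCA. Released [3H]-arachidonate separated by TLC or column and counted by scintillation.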

porcine pancreatic PLA2 [2] = target: T1, porcine pancreatic PLA2; assay: PLA2 assay: in vitro porcine pancreatic phospholipase A2, preincubation of drug+enzyme, substrate 2 nM; settings: preincubation, subs. con. 2; for inhibition at 10 µg/mL: dose 10 μ/ml; for IC50: read-out: IC50 (converted)
Method in brief: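 Porcine pancreatic PLA2 acting on 2 nM radiolabeled arachidonyl-phosphatidylcholine in mixed micelles (0.1 M Tris-HCl pH 9.0, 10 mM CaCl2, 10 mM Na taurocholate), 15 min at 37 °C with preincubation of drug and enzyme. Stopped with TCA; released 3H-arachidonate extracted, separated by TLC or column, counted by scintillation.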

porcine pancreatic PLA2 [3] = target: T1, porcine pancreatic PLA2; assay: HPLA2 assay: in vitro porcine pancreatic phospholipase A2, preincubation design, [s]=10 μm; settings: for inhibition at 20 µg/mL: dose 20 μ/ml; for inhibition at 50 µg/mL: dose 50 μ/ml
Protocol: (§1) Phospholipase A2 activity was measured by a radiochemical assay in which labeled synthetic phosphatidylcholine substrate is converted by porcine pancreatic PLA2 to free radiolabeled arachidonate and lyso PC. Radiolabeled arachidonate is extracted from the reaction mixture and separated from unreacted substrate by column chromatography or TLC. Radioactivity (cpm) in samples is quantitated by liquid scintillation counting. Specific details are as follows:
(§2) Labeled substrate(1-stearyl-2-^3 H-arachidonylphosphatidylcholine; Amersham, sp. act. 84 (uCi/mmole, 0.025 to 0.2 uCi/assay tube and unlabeled substrates (Avanti), in sufficient quantity to give 20,000 cpm to 50,000 cpm and 10 μM to 1,000 μM final concentration/assay tube are dried under a stream of nitrogen. The PLA2 and mPLA2 assays utilized a […] substrate concentration. The mHPLA2 and HPLA2 assays (vida infra) utilized a 10 μM substrate concentration and the SmPLA2 assay utilized a substrate concentration ranging from 100 to 1000 μm. The substrate is then redissolved in 0.1M tris-HCl buffer, pH 9.0 containing 10 mM CaCl2 and 10 mM Na taurocholate detergent. The mixture is sonicated in a Kontes Sonifier to yield a homogeneous dispersion. The "mixed" micellar substrate is clear. An aliquot is reserved for a cpm count (total substrate). The total reaction volume is 500 μL; siliconized glassware or plasticware is used throughout. Enzyme (Sigma, sp. act.>690 U/mg protein and preferably 900 U/mg protein) is diluted 1:750 or 1:1000 in 0.1M tris-HCl buffer, pH 9.0 (without Ca^++ and detergent). Enzyme dilution depends on substrate concentration and required enzyme concentration.
(§3) The substrate in buffer is kept on ice until the reaction is started. The reaction is started by adding 10 μL of diluted enzyme solution to 490 μL of micellar substrate solution. Samples are incubated in a 37° C. water bath for 15 minutes with gentle mixing. The reaction is terminated by the addition of 100 μL of 1M fresh trichloroacetic acid (TCA) solution and chilling the tubes on ice for 30 minutes.
(§4) Samples (600 μL) are extracted with 3 ml CHCl3 /MeOH (2:1) for thin layer chromatography or in hexane/ether (9:1) for column chromatography. The phases are separated by gentle centrifugation at 700 rpm×5'. The organic phase is recovered.
Labeled arachidonate extracted with CHCl3 /MeOH is separated on silica gel G TLC plates (Analtech). Twenty μL of a 2 mg/ml internal standard solution of arachidonic acid (Sigma) is combined with 2-3 ml of the organic phase. The entire mixture is dried under nitrogen and redissolved in 50 μL of CHCl3 /MeOH (2:1). A 20 μL sample is counted in 10 ml of Beckman Redi-solv HP and spotted on silica gel G plates. […] Plates are developed in a glass chamber for 1-11/2 hours, air dried, and the spots visualized in an iodine vapor chamber. Standards of phosphatidylcholine, lyso PC, and arachidonic acid (Sigma) are made as 2 mg/ml stocks in CHCl3 /MeOH (2:1) and spotted on plates. Spots corresponding to arachidonate and phospholipid are scraped and counted in 10 ml Beckman Redi-Solv HP scintillation fluid.
(§5) Samples are extracted with hexane/ether and the upper organic phase recovered. An aliquot is applied to a Silicar CC4 (Malincrodt) column. Columns are prepared using 1 ml of a 1:1 slurry of silicar CC4 in hexane/ether in a Pasteur pipet (approx. 2 cm height). Columns are rinsed with 500 μL of hexane/ether before adding the sample (300-600 μL) to the column. Columns are eluted with a total of 6 ml of hexane/ether. The 6 ml sample is counted in 10 ml of Beckman Redi-Solv HP scintillation fluid.
or the phospholipase A2 assay, compounds are prepared as 1 mg/ml stock solutions in MeOH and diluted appropriately in PBS.

porcine pancreatic PLA2 [4] = target: T1, porcine pancreatic PLA2; assay: SMPLA2 assay: in vitro porcine pancreatic phospholipase A2, mixed micelle design, substrate 100 to 1000 μm; settings: subs. con. 100
Protocol: as §1, §2, §3, §4
Labeled arachidonate extracted with CHCl3 /MeOH is separated on silica gel G TLC plates (Analtech). Twenty μL of a 2 mg/ml internal standard solution of arachidonic acid (Sigma) is combined with 2-3 ml of the organic phase. The entire mixture is dried under nitrogen and redissolved in 50 μL of CHCl3 /MeOH (2:1). A 20 μL sample is counted in 10 ml of Beckman Redi-solv HP and spotted on silica gel G plates. The solvent system used to develop the plate is CHCl3 /MeOH/13.5N NH3 /H2 O (70:30:4:1). Plates are developed in a glass chamber for 1-11/2 hours, air dried, and the spots visualized in an iodine vapor chamber. Standards of phosphatidylcholine, lyso PC, and arachidonic acid (Sigma) are made as 2 mg/ml stocks in CHCl3 /MeOH (2:1) and spotted on plates. Spots corresponding to arachidonate and phospholipid are scraped and counted in 10 ml Beckman Redi-Solv HP scintillation fluid.
as §5
or the phospholipase A2 assay, compounds are prepared as 1 mg/ml stock solutions in MeOH and diluted appropriately in PBS. […]

porcine pancreatic PLA2 [5] = target: T1, porcine pancreatic PLA2; assay: MPLA2 assay: in vitro porcine pancreatic phospholipase A2, mixed micelle design, substrate 2 nM; settings: for inhibition at 10 µg/mL: dose 10 μ/ml; for inhibition at 20 µg/mL: dose 20 μ/ml
Method in brief: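 Radiochemical PLA2 assay, mixed-micelle design: compound dried under N2 with 1-stearyl-2-[3H]-arachidonyl-PC substrate (2 nM) in 0.1M Tris-HCl pH 9.0, 10 mM CaCl2, 10 mM Na taurocholate. Reaction started with enzyme, 15 min at 37° C, stopped with TCA; released [3H]-arachidonate extracted, separated by TLC or column, counted by scintillation.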

[6] = subs. con. 10, read-out: % Inh.
[7] = dose 10 μ/ml, subs. con. 10, read-out: % Inh. Avg.
[8] = subs. con. 10, read-out: % Inh. Avg.
[9] = subs. con. 2, read-out: % Inh. Avg.

T1 sequence (P00592 23-146): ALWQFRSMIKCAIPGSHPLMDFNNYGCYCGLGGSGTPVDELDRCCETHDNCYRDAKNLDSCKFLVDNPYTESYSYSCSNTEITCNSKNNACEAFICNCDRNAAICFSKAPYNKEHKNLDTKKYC

SMILES: CCCCCCCCCCCCCCCCOCC(COP(=O)([O-])OCC[N+](C)(C)C)OP(=O)(O)OCCCCCCCCCCCCCCCC (single isomer, unassigned; more polar) [3,5,8,10-Tetraoxa-4,9-diphosphahexacosan-1-aminium, 7-[(hexadecyloxy)methyl]-4,9-dihydroxy-N,N,N-trimethylhydroxide, 4-(inner salt), 4,9-dioxide, more polar isomer]
- inhibition at 25 µg/mL (porcine pancreatic PLA2 [1]; [6]): 1%
- inhibition at 10 µg/mL (porcine pancreatic PLA2 [2]; read-out: % Inh. Avg.): 27%
- inhibition at 25 µg/mL (porcine pancreatic PLA2 [2]; dose 25 μ/ml, read-out: % Inh.): 91%
- IC50 (porcine pancreatic PLA2 [2]): 3.18 µM
- inhibition at 10 µg/mL (porcine pancreatic PLA2 [3]; [7]): 18%
- inhibition at 20 µg/mL (porcine pancreatic PLA2 [3]; [8]): 22%
- inhibition at 50 µg/mL (porcine pancreatic PLA2 [3]; [8]): 32%

SMILES: CCCCCCCCCCCCCCCCOCC(COP(=O)([O-])OCC[N+](C)(C)C)OP(=O)(O)OCCCCCCCCCCCCCCCC (stereo not drawn) [3,5,8,10-Tetraoxa-4,9-diphosphahexacosan-1-aminium, 7-[(hexa] [3,5,8,10-Tetraoxa-4,9-diphosphahexacosan-1-aminium, 7-[(hexadecyloxy)methyl]-4,9-dihydroxy-N,N,N-trimethyl-hydroxide, 4-(inner salt), 4,9-dioxide]
- % Inh. (porcine pancreatic PLA2 [3]; dose 10 μ/ml, subs. con. 10): STIM

SMILES: CCCCCCCCCCCCCCCCOCC(COP(=O)([O-])OCC[N+](C)(C)C)OP(=O)(O)OCCCCCCCCCCCCCCCC (stereo not drawn) [3,5,8,10-Tetraoxa-4,9-diphosphahexacosan-1-aminium, 7-[(hexadecyloxy)methyl]-4,9-dihydroxy-N,N,N-trimethyl-, hydroxide, 4-inner salt), 4,9-dioxide]
- inhibition at 20 µg/mL (porcine pancreatic PLA2 [3]; [6]): 0%
- inhibition at 50 µg/mL (porcine pancreatic PLA2 [3]; [6]): 0%

SMILES: CCCCCCCCCCCCCCCCOCC(COP(=O)([O-])OCC[N+](C)(C)C)CC(N)CCCCCCCCCCCCCCCC (stereo not drawn) [7-(2-Aminooctadecyl)-4-hydroxy-N,N,N-trimethyl-3,5,9-trioxa-4-phosphapentacosanaminium, hydroxide, inner salt, 4-oxide]
- % Inh. Avg. (porcine pancreatic PLA2 [4]; dose 25 μ/ml): 61%
- inhibition at 25 µg/mL (porcine pancreatic PLA2 [4]; dose 25 μ/ml): 63%
- IC50 (porcine pancreatic PLA2 [4]; read-out: IC50 (converted)): 20.6 µM and 34.1 µM
- IC50 (porcine pancreatic PLA2 [4]; read-out: IC50 Avg. (converted)): 27.3 µM
- % Inh. (porcine pancreatic PLA2 [1]; dose 10 μ/ml, subs. con. 10): 59%
- inhibition at 10 µg/mL (porcine pancreatic PLA2 [1]; [7]): 70%
- inhibition at 20 µg/mL (porcine pancreatic PLA2 [1]; dose 20 μ/ml, subs. con. 10): 97%
- inhibition at 25 µg/mL (porcine pancreatic PLA2 [1]; [6]): 78%
- inhibition at 25 µg/mL (porcine pancreatic PLA2 [1]; [8]): 77%
- IC50 (porcine pancreatic PLA2 [1]; subs. con. 10, read-out: IC50 (converted)): 1.91 µM and 7.09 µM and 8.73 µM
- IC50 (porcine pancreatic PLA2 [1]; subs. con. 10, read-out: IC50 Avg. (converted)): 5.87 µM
- inhibition at 10 µg/mL (porcine pancreatic PLA2 [2]; read-out: % Inh.): 95%
- inhibition at 20 µg/mL (porcine pancreatic PLA2 [2]; dose 20 μ/ml, read-out: % Inh.): 95%
- IC50 (porcine pancreatic PLA2 [2]): 0.682 µM
- inhibition at 10 µg/mL (porcine pancreatic PLA2 [5]; subs. con. 2, read-out: % Inh.): 34%
- inhibition at 10 µg/mL (porcine pancreatic PLA2 [5]; [9]): 65%
- inhibition at 20 µg/mL (porcine pancreatic PLA2 [5]; subs. con. 2, read-out: % Inh.): 72%
- inhibition at 20 µg/mL (porcine pancreatic PLA2 [5]; [9]): 85%
- % Inh. (porcine pancreatic PLA2 [5]; dose 25 μ/ml, subs. con. 2): STIM
- inhibition at 25 µg/mL (porcine pancreatic PLA2 [5]; dose 25 μ/ml, subs. con. 2, read-out: % Inh.): 92%
